Experiments:
Caenorhabditis elegans [1] = experiment: C. elegans L1 larvae dose-response, 5 day visual viability score (Examples 2 and 7); format: in vivo; set-up: key: Dead: only stiff L1s (no movement); Dead (L4): worms are dead, but at a later larval stage; majority of worms are L1 (based on size); majority of worms are L2 (based on size); majority of worms are L3 (based on size); majority of worms are L4 (based on size); AD: majority of worms are adult; #AD: 5 adult worms or less; B!: sterile (0-25 progeny); B: low broodsize (25-100 progeny); ˜B: moderate broodsize (100-250 progeny); <: reduced broodsize (250-500 progeny); OK: no effect (˜1000+ progeny); conditions: day 5, Table 3; for 5 Day Visual Score V6: 0.3 μM (procedure of Example 2); for 5 Day Visual Score V5: 0.9 μM (procedure of Example 2); for 5 Day Visual Score V4: 2.6 μM (procedure of Example 2); for 5 Day Visual Score V3: 7.8 μM (procedure of Example 2); for 5 Day Visual Score V2: 23.3 μM (procedure of Example 2); for 5 Day Visual Score V1: 70 μM (procedure of Example 2)
Procedure: Caenorhabditis elegans adults were grown on Nematode Growth Medium (NGM) until they produced eggs, then the adults were removed.
The eggs were allowed to hatch, and the L1 larvae collected. See The Neniatode Caenorhabditis elegans (1988) Cold Spring Harbor Laboratory Press. Using a Matrix Programmable Pipette, the L1s were distributed into 96-well tissue culture plates, 20 L1 in 50 μl NGM per well. Antibiotic/Antimyotic was added to each well, and 1% by weight E. coli strain HB101. The subject anthelmintic compounds were stored at 5 mM in 100% DMSO. 0.7 μl of compounds 1-31 were added to the left-most column of wells to yield a final concentration of 70 μM in 1.4% DMSO, with 1.4% DMSO only as the control. The compounds were then subjected to 5 more 3-fold dilutions from left to right to yield 6 column concentrations of 70 μM, 23.3 μM, 7.8 μM, 2.6 μM, 0.9 μM, and 0.3 μM. Plates were stored in air-tight Rubbermaid plastic boxes at 20° C. The nematodes had cleared all control wells by day 4, and nematode viability was scored by visual examination under a 100× dissecting microscope on day 5. A visual viability scoring system was used as follows:
If several classes of worms exist in a well, then all classes are scored. If adults are present, then the brood score is also recorded. Thus, “L1/L2” would mean a mixture of L1's and L2's are present in the well. “L4/#AD/B” would mean that a mixture of L4's and adults are resent in the well. The “#AD” would mean that there are 6 or less adults, and the “B” would mean that there were 100 progeny or less.
Column VI has a compound concentration of 70 μM with sequential 3-fold dilutions reported in columns V2, V3, V4, V5, and V6, respectively, such that the V6 concentration was 0.3 μM.
(§1) The nematicidal activity of anthelmintic Compositions 48-118 were determined in accordance with the procedure outlined in Example 2.

Caenorhabditis elegans [2] = experiment: HTS runs (initial and follow-up): mOD, % Run and visual score (Table 3); format: in vivo; set-up: key to Initial HTS Run Visual Score / Follow-up HTS Run Visual Score: Dead: only stiff L1s (no movement); Dead (L4): worms are dead, but at a later larval stage; majority of worms are L1 (based on size); majority of worms are L2 (based on size); majority of worms are L3 (based on size); majority of worms are L4 (based on size); AD: majority of worms are adult; #AD: 5 adult worms or less; B!: sterile (0-25 progeny); B: low broodsize (25-100 progeny); ˜B: moderate broodsize (100-250 progeny); <: reduced broodsize (250-500 progeny); OK: no effect (˜1000+ progeny)
Procedure: as §1

SMILES | 5 Day Visual Score V6 (Caenorhabditis elegans [1]) | 5 Day Visual Score V5 (Caenorhabditis elegans [1]) | 5 Day Visual Score V4 (Caenorhabditis elegans [1]) | 5 Day Visual Score V3 (Caenorhabditis elegans [1]) | 5 Day Visual Score V2 (Caenorhabditis elegans [1]) | 5 Day Visual Score V1 (Caenorhabditis elegans [1]) | Follow-up HTS Run % Run (Caenorhabditis elegans [2]) [%] | Follow-up HTS Run Visual Score (Caenorhabditis elegans [2]) | Follow-up HTS Run mOD (Caenorhabditis elegans [2]) [mOD] | Initial HTS Run % Run (Caenorhabditis elegans [2]) [%] | Initial HTS Run Visual Score (Caenorhabditis elegans [2]) | Initial HTS Run mOD (Caenorhabditis elegans [2]) [mOD]
Clc1cccc(Oc2cc(NCc3ccccc3Cl)ncn2)c1 [AKC 376] | OK (no effect (˜1000+ progeny)) | OK (no effect (˜1000+ progeny)) | OK (no effect (˜1000+ progeny)) | OK (no effect (˜1000+ progeny)) | OK (no effect (˜1000+ progeny)) | L1 | 115 | L2/L3/1AD | 155 | 131 | 2AD/B | 256
NS(=O)(=O)c1cccc(NC(=O)CCN2CCC(c3cccc4[nH]ccc34)CC2)c1 [AKC 377] | OK (no effect (˜1000+ progeny)) | OK (no effect (˜1000+ progeny)) | OK (no effect (˜1000+ progeny)) | OK (no effect (˜1000+ progeny)) |  | L1 | 109 | L4/AD/B!-No P | 147 | 113 | 3AD/B | 220
FC(F)(F)c1cccc(CNc2cc(Oc3cccc(Cl)c3)ncn2)c1 [AKC 379] | OK (no effect (˜1000+ progeny)) | OK (no effect (˜1000+ progeny)) | OK (no effect (˜1000+ progeny)) | OK (no effect (˜1000+ progeny)) |  | Dead | 107 | L4/AD/B! | 144 | 142 | Dead/1AD | 277
Fc1ccc(Oc2cc(NCc3cccc(C(F)(F)F)c3)ncn2)cc1 [AKC 380] | OK (no effect (˜1000+ progeny)) | OK (no effect (˜1000+ progeny)) | OK (no effect (˜1000+ progeny)) | OK (no effect (˜1000+ progeny)) |  | L1 | 102 | L4/AD/B! | 138 | 129 | Dead | 251
Fc1ccccc1Oc1cc(NCc2cccc(C(F)(F)F)c2)ncn1 [AKC 381] | OK (no effect (˜1000+ progeny)) | OK (no effect (˜1000+ progeny)) | OK (no effect (˜1000+ progeny)) | < (reduced broodsize (250-500 progeny)) | ˜B (moderate broodsize (100-250 progeny)) | L1 | 109 | L4/AD/B! | 147 | 138 | Dead/1AD/B! | 270
FC(F)(F)c1cccc(CNc2cc(Oc3ccc(-c4ccccc4)cc3)ncn2)c1 [AKC 382] | OK (no effect (˜1000+ progeny)) | OK (no effect (˜1000+ progeny)) | OK (no effect (˜1000+ progeny)) | OK (no effect (˜1000+ progeny)) |  | Dead | 118 |  | 159 | 141 | Dead | 275
FC(F)(F)c1cccc(CNc2cc(Oc3ccccc3Cl)ncn2)c1 [AKC 383] | OK (no effect (˜1000+ progeny)) | OK (no effect (˜1000+ progeny)) | OK (no effect (˜1000+ progeny)) | OK (no effect (˜1000+ progeny)) | ˜B (moderate broodsize (100-250 progeny)) | L1 | 110 | L4/AD/B! | 149 | 132 | 5AD/B | 257
CC(C)(C)OC(=O)NCc1ccc(-c2cccc(C(=O)Nc3ccc(S(N)(=O)=O)cc3)c2)cc1 [AKC 390] | OK (no effect (˜1000+ progeny)) | OK (no effect (˜1000+ progeny)) | OK (no effect (˜1000+ progeny)) | OK (no effect (˜1000+ progeny)) |  | L1 | 110 | L4 | 148 | 133 | B! (sterile (0-25 progeny)) | 260
C#Cc1cccc(N(CC(=O)Nc2ccc(S(N)(=O)=O)cc2)Cc2cccs2)c1 [AKC 394] | < (reduced broodsize (250-500 progeny)) | OK (no effect (˜1000+ progeny)) | OK (no effect (˜1000+ progeny)) |  | Dead | Dead | 111 | Dead | 150 | 135 | Dead | 264
CCCCCCCCCCCCNc1cc(Oc2ccccc2OC)ncn1 [AKC 398] | OK (no effect (˜1000+ progeny)) | < (reduced broodsize (250-500 progeny)) | OK (no effect (˜1000+ progeny)) | #AD/˜B | Dead | Dead | 93 | Dead | 126 | 118 | Dead | 231
CCCCCCCCCCCCNc1cc(Oc2ccccc2Cl)ncn1 [AKC 404] | OK (no effect (˜1000+ progeny)) | OK (no effect (˜1000+ progeny)) | OK (no effect (˜1000+ progeny)) | OK (no effect (˜1000+ progeny)) | Dead | Dead | 124 | Dead | 168 | 155 | Dead | 302
CCC(NC(=O)Nc1ccc(NC(=O)C2CCCO2)cc1)c1cccc(S(N)(=O)=O)c1 (centres unmarked) [AKC 405] | OK (no effect (˜1000+ progeny)) | OK (no effect (˜1000+ progeny)) | OK (no effect (˜1000+ progeny)) | #AD/˜B | L1 | L1 | 120 | 1AD/B! | 162 | 141 | 4AD/B | 274

Source: patent US20010049373A1, “Materials and methods for killing nematodes and nematode eggs” (priority 2000, published 2001)
